Data: patent US8178688B2, “Benzamidine derivatives, process for the preparation thereof and pharmaceutical composition comprising the same” (Dong Wha Pharmaceutical Co., Ltd., priority 2004, dated 2012)
Like-named read-outs stand apart in the source and are kept apart here.

Key:
[1] = system: osteoclast differentiation; experiment: Inhibitory effects on osteoclast differentiation (co-culture of bone marrow cells with osteoblast, TRAP staining); assay type: cell-based, mice; details: Mus musculus, Osteoclast, 168 h, co-culture of bone marrow cells and osteoblast, 7 days, TRAP-positive osteoclasts versus controls, read-out: % inhibitory activity on osteoclastogenesis
Procedure, shortened: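 Bone marrow cells from 6–8-week male ddY mice co-cultured with neonatal ICR mouse calvarial osteoblasts in α-MEM/FBS with dexamethasone (10^−7M) and vitamin D3 (10^−8M) for 7 days, compound and medium renewed every 2–3 days. TRAP-positive cells with ≥3 nuclei counted; inhibition given as percent of control.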

[2] = system: mouse models of ovalbumin-induced asthma; experiment: Therapeutic effect in mouse model of asthma induced with ovalbumin (lung weight, total leukocytes in blood and BALF); assay type: in vivo, C57BL/6 mice; details: for Changes on the lung weight, Absolute: 200 mg/kg oral once a day from sensitization, vehicle control 0.134 ± 0.012, sham 0.110 ± 0.009; for Changes on the lung weight, Relative (%) / Total leukocytes in peripheral blood (×10^3/1 mm^3) / Total leukocytes in BALF (×10^5/1 ml): 200 mg/kg oral once a day; for Changes on the lung weight, Relative (%): % of body weight, vehicle control 0.780 ± 0.103, sham 0.694 ± 0.049; for Total leukocytes in peripheral blood (×10^3/1 mm^3): vehicle control 14.49 ± 0.88, sham 10.27 ± 0.93; for Total leukocytes in BALF (×10^5/1 ml): vehicle control 75.68 ± 4.67, sham 51.75 ± 2.15
Procedure: The benzamidine compounds were assated for therapeutic effect on allergic inflammation in mouse models of ovalbumin-induced asthma. Starting on the day of immunization the benzamidine compounds were dosed for 17 consecutive days. The experimental animals were re-exposed to ovalbumin 14 days after the sensitization and then sacrificed 3 days after the re-exposure. Changes in lung weight, cellular components of peripheral blood and bronchoalveolar lavage fluid, and lung histopathology were observed.
A total of 110 female C57BL/6 mice (7-week-old, SLC, Japan) were adapted to a laboratory environment for 6 days before being used in earnest experiments. While being housed at a densirt of five in a plastic cage, the experimental animals were breed in a breeding room with controlled temperature (20-25° C.) and humidity (30-35%). Under light-dark cycles of 12 hours, mice were allowed to have free access to feedstuff and tap water. While asthma was induced in 100 mice by ovalbumin, 10 mice were used as a non-treated group.
200 mg of benzamidine compounds (Methansulfonic acid or Hydrochloride) were completely dissolved in 5 ml of sterilized distilled water. The benzamidine compound in the solutions was orally administered at doses of 200 mg per kg of body weight once a day from the day of the sensitization with ovalbumin. The control group was administered with equal volumes of sterilized distilled water in the same manner.
A solution of 200 μg of ovalbumin (Grade VI; Sigma, st. Louis, Mo., USA) and 180 mg of aluminium hydroxide (Al(OH)3, dried powder gel; Aldrich, Milwaukee, USA) in 4 ml of physiological saline was allowed to stand at 4° C. overnight and was administered to the experimental animals (200 μl, abdominal injection) for sensitization. As for the non-treated group, a solution of only aluminium hydroxide in saline was injected. 15 days after sensitization, a 1.5% ovalbumin solution was sprayed in air using a nebulizer, followed by exposing the experimental animals to the spray for 10 min to induce asthma therein. The non-treated group was exposed only to saline in the same manner. All the experimental animals were sacrificed 3 days after the exposure.
On the final day of experiment, the lungs were separated form adjacent organs. The removed lungs were weight among individual animals, the relative weight of the lungs was calculated as a percentage of body weight using the following Equation 3. Relative weight of Lung(%)=(Absolute lung weight/Body weight)×100 Equation 3
On the final day of experiment, all the experimental animals were etherized and underwent laparotomy to expose the abdominal vena cava, from which 1 ml of blood was the taken. Using a hemocytometer, a blood sample was measured for total leukocyte counts in a ×10^3/1 mm^3 units.
On the final day of experiment, secretions present in bronchi and alveola were examined for cyrological constitution. After veing etherized, the experimental animals were operated to open the cervical region and the thorax. The jugular vein was allowed to bleed, followed by endotracheal intubation. 3 ml of phosphate buffered saline was injected twice through the tube and the thorax was massaged for 30 sec to obtain cell suspension from the lungs. Using a hemocytometer, a […] was measured for total leukocyte counts in a ×10^5/1 ml units.

[3] = system: ovariectomized ddY mouse; experiment: Therapeutic effect in the ovariectomized osteoporetic mouse model (trabecular bone volume of the femur); assay type: in vivo, ddY mice; details: Mus musculus, 672 h, 50 mg/kg/day oral gavage for 4 weeks from 4 weeks after ovariectomy, salts (methansulfonic acid or HCl), read-out: Changes on TBV (% changes vs vehicle control)
Procedure: The therapeutic effects of each benzamidine derivates were evaluated on the ovariectomized ddY mouse. Benzamidine derivates were dosed from 4 weeks after operation for 4 weeks and the changes on the trabecular bone volume (TBV) of the femur were observed via histomorphometry.
Female ddY mice (6-wk old upon receipt, SLC, Japan) were used after acclimatization for 7 days. Animals were allocated 5 per polycarbonate cage in a temperature (20-25° C.) and humidity (30-35%) controlled room. Light:dark cycle was 12 hr:12 hr and feed (Samyang, Korea) and water were supplied free to access.
Salts of benzamidine derivates (Methansulfonic acid or HCl) were used for the test substances of this invention. Test substances are dissolved and/or suspended in injectable distilled water and administered at a dosage volume of 10 ml/kg by oral gavage. All test substances are dosed from 4 weeks after operation for 4 weeks at 50 mg/kg/day.
To induce estrogen-deficient osteoporosis, bilateral ovaries are removed and then closed by routine methods. Operation was conduct under Ketamine hydrochloride and xylazine hydrochloride anesthesia.
The left femur of each mouse were separated at sacrifice, and fixed in 10% neutral buffered formalin (NBF), then decalcified in decalcifying solution (24.4% formic acid, and 0.5N sodium hydroxide) for 5 days (mixed decalcifying solution was exchanges once a day for 5 days). After the dexalcification, the femur was embedded in paraffin, sectioned (3˜4 μm) and stained with hematoxylin-eosin stain.
TBV was calculated using automated image analysis (analySIS Image Processing; SIS, Germany) under magnification of ×200 in the uniform area of trochlea epiphyseal regions (growth plate regions were excluded) of prepared histological specimens. TBV was calculated as percentage (%) levels.
The changes of TBV compared to that of vehicle control are calculated as following Equation 1 to help the understanding of the efficacy of test substances. Percentage changes=[((TBV of a−TBV of b)/TBV of b)×100] Equation 1

Compound	melting point [°C]	inhibition at 1 µM ([1]; 1 μm) [%]	inhibition at 1 µM ([1]; 1 m) [%]	change in vivo at 50 mg/kg [3] [%]	also measured
CCc1nc(-c2ccc(OCCCCCOc3ccc(C(=N)NO)cc3)cc2)c(CC)s1 [Example 18, N-hydroxy-4-(5-[4-(2,5-diethyl-1,3-thiazol-4-yl)phenoxy]pentoxy)-benzamidine]	121 to 127	24.8	–	–	–
CCCCc1sc(-c2cccnc2)nc1-c1ccc(OCCCCCOc2ccc(C(=N)NO)cc2)cc1 [Example 34, N-hydroxy-4-(5-[4-(5-butyl-2-pyridin-3-yl-1,3-thiazol-4-yl)phenoxy]pentoxy)-benzamidine]	107 to 118	28.7	–	–	–
Cc1nc(-c2ccc(OCCCCCOc3ccc(C(=N)NO)cc3)cc2)c(C)s1 [Example 10, N-hydroxy-4-(5-[4-(2,5-dimethyl-1,3-thiazol-4-yl)phenoxy]pentoxy)-benzamidine]	128 to 133	1.8	–	–	–
CC(C)c1nc(-c2ccc(OCCCCCOc3ccc(C(=N)NO)cc3)cc2)c(Cc2ccccc2)s1 [Example 39, N-hydroxy-4-(5-[4-(5-benzyl-2-isopropyl-1,3-thiazol-4-yl)phenoxy]pentoxy)-benzamidine]	108 to 120	37.5	–	–	–
CCCCc1sc(C)nc1-c1ccc(OCCCCCOc2ccc(C(=N)NO)cc2)cc1 [Example 30, N-hydroxy-4-(5-[4-(5-butyl-2-methyl-1,3-thiazol-4-yl)phenoxy]pentoxy)-benzamidine]	138 to 140	47.7	–	–	–
N=C(NO)c1ccc(OCCCCCOc2ccc(-c3csc(-c4ccccc4)n3)cc2)cc1 [Example 6, N-hydroxy-4-(5-[4-(2-phenyl-1,3-thiazol-4-yl)phenoxy]pentoxy)-benzamidine]	133 to 141	–	–	–	–
Cc1nc(-c2ccc(OCc3ccc(COc4ccc(C(=N)NO)cc4)cc3)cc2)c(C(C)C)s1 [Example 185, N-hydroxy-4-(4-[4-(5-isopropyl-2-methyl-1,3-thiazol-4-yl)-phenoxymethyl]-benzyloxy)-benzamidine]	–	–	89.4	152	Changes on the lung weight, Absolute [2]: 0.116 ± 0.003 g; Changes on the lung weight, Relative (%) [2]: 0.720 ± 0.061%; Total leukocytes in peripheral blood (×10^3/1 mm^3) [2]: 11.90 ± 1.45 # ×10^3/1 mm^3; Total leukocytes in BALF (×10^5/1 ml) [2]: 66.47 ± 7.41 # ×10^5/1 ml
Cc1sc(-c2ccccc2)nc1-c1ccc(OCCCCCOc2ccc(C(=N)NO)cc2)cc1 [Example 12, N-hydroxy-4-(5-[4-(5-methyl-2-phenyl-1,3-thiazol-4-yl)phenoxy]pentoxy)-benzamidine]	124 to 130	–	–	–	–
CC(C)c1sc(N2CCOCC2)nc1-c1ccc(OCCCCCOc2ccc(C(=N)NO)cc2)cc1 [Example 169, N-hydroxy-4-(5-[4-(5-isopropyl-2-morpholino-1,3-thiazol-4-yl)phenoxy]pentoxy)-benzamidine]	–	–	83.3	186	Changes on the lung weight, Absolute [2]: 0.113 ± 0.003 g; Changes on the lung weight, Relative (%) [2]: 0.696 ± 0.032 %; Total leukocytes in peripheral blood (×10^3/1 mm^3) [2]: 13.20 ± 2.22 ×10^3/1 mm^3; Total leukocytes in BALF (×10^5/1 ml) [2]: 72.25 ± 7.95 ×10^5/1 ml
N=C(NO)c1ccc(OCCCCCOc2ccc(-c3nc(N4CCOCC4)sc3CC3CCCC3)cc2)cc1 [Example 168, N-hydroxy-4-(5-[4-(5-cyclopentylmethyl-2-morpholino-1,3-thiazol-4-yl)phenoxy]pentoxy)-benzamidine]	–	–	87	56.6	–
Cc1sc(N2CCOCC2)nc1-c1ccc(OCCCCCOc2ccc(C(=N)NO)cc2)cc1 [Example 165, N-hydroxy-4-(5-[4-(5-methyl-2-morpholino-1,3-thiazol-4-yl)phenoxy]pentoxy)-benzamidine]	–	–	66.9	37.5	–
CCCCc1sc(N(C)C)nc1-c1ccc(OCCCCCOc2ccc(C(=N)NO)cc2)cc1 [Example 152, N-hydroxy-4-(5-[4-(5-butyl-2-dimethylamino-1,3-thiazol-4-yl)phenoxy]pentoxy)-benzamidine]	–	–	83.8	71.5	–
